{"source": "patent US7012060B1", "about": "“TNF receptor and steroid hormone in a combined therapy” (priority 1995, dated 2006)", "key": {"[1]": {"test_system": "septic shock induced by LPS + D-Galactosamine, in mice", "assay": "LPS+D-Galactosamine-induced septic shock model", "assay_type": "in vivo, SPF female BALB/c inbred mice", "method": "The experiments were carried out in vivo on mice. The septic shock was induced by an i.p. administration of a mixture of LPS (0.1 μg/mouse) and D-Galactosamine (18 mg/mouse).\nThe treatment schedule for r-hTBP-1 based on repeated administrations (the total dose was divided into 4 administrations given at time 0 and […] and 24 hours after), was adopted. CHO r-hTBP-1 was tested, alone or in combination with DHEA, at dose levels of 62.5 and 125 μg/mouse (total dose).\nDHEA was tested both in a single administration injected i.p. one hour before and contemporaneously to the septic shock-inducing agent at doses encompassed between 100 and 2.000 μg/mouse and in repeated treatment with the total dose (250 μg/mouse) divided into 4 injections given within 24 hours.\nThe above treatment schedules of DHEA (doses from 250 to 1,500 μl g/mouse) were followed also in combination with r-hTBP-1 which was tested at the total dose varying from 62.5 to 125 μg/mouse (divided into 4 administrations).\nSPF female BALB/c inbred mice, 6–8 weeks (about 18–20 g b.w.), from Charles River were used throughout the whole study after an acclimatisation period of at least 7 days.\nUnless otherwise specified, in all the experiments the mice were randomly divided into groups of 10 animals each.\nBoth substances were dissolved in saline. The mixture of LPS (0.1 μg/mouse) and D-Galactosamine (18 mg/mouse) was prepared by mixing equal volumes of these substances. The mixture was subsequently injected to animals by the i.p. route. This dose was selected under precious experiments as that inducing around 80% mortality calculated as the number of dead vs. total number of mice for each croup. The lethality was monitored after 24, 48, 72 and 96 hours and at day 7 post-treatment.\nThe drug was diluted in saline and injected by repeated administrations, i.e. i.v. immediately before the inoculum of LPS plus D-Galactosamine and s.c. 3, 6 and 24 hours later.\nThe effects of DHEA, alone or in combination with r-hTBP-1, were assayed after single i.p. administrations at different times in respect to LPS+D-Galactosamine injection; in particular, it was administered 1 hour before and contemporaneously to the septic shock-inducing agent.\nA repeated treatment schedule was also investigated in which DHEA was administered at time 0 (septic shock induction) and 3, 6 and 24 hours later. DHEA was initially vehicled in a mixture of 2.5% alcohol and 10% rabbit serum in saline. To improve the solubility and standardise the preparation, the steroid was successively dispersed in a mixture of 2.5% alcohol and 10% phospholipid emulsion in saline.\nThe primary end point was the survival rate at 48 hours after induction of septic shock. The comparison of the effects of each treatment group vs. controls and among treatment groups was effected by Fisher's exact test, one-tailed. The same comparison was also performed at the other time points. The results in each treatment group were expressed as percent survival.\nIn all the experiments, percent survival values were calculated using the survival Tables for the follow up studies (Armitage P. Cap. XIV. Tavole di sopravvivenza in Statistica Medica, Feltrinelli, Milano). The χ^2-test was applied to each observation time by comparing the DHEA+r-hTBP-1 groups to the other groups."}, "[2]": {"test_system": "herpes virus type 2", "conditions": "cited from earlier work"}, "[3]": {"test_system": "TNF-α", "conditions": "both in vivo and in vitro; cited from earlier work"}, "[4]": {"test_system": "coxsackievirus B4", "conditions": "cited from earlier work"}, "[5]": {"test_system": "West Nile virus", "conditions": "cited from earlier work"}, "[6]": {"test_system": "septic shock induced by lipopolysaccharides (LPS) alone", "conditions": "mice; cited from earlier work"}, "[7]": {"test_system": "Semliki Forest virus", "conditions": "cited from earlier work"}}, "note": "Marks after values point to notes of the source that are not given here.", "data": [{"molecule": "C[C@]12CC[C@H](O)CC1=CC[C@@H]1[C@@H]2CC[C@]2(C)C(=O)CC[C@@H]12", "note": "[DHEA, Dehydroepiandrosterone]", "values": [{"measurement": "% cumulative survival", "setting": "[1]; DHEA 2000 μg/mouse i.p. 1 hour before LPS + D-Gal, saline 10% rabbit serum, 24 hrs, 1st exp", "value": "100^a %"}, {"measurement": "% cumulative survival", "setting": "[1]; DHEA 2000 μg/mouse i.p. 1 hour before LPS + D-Gal, saline 10% rabbit serum, 24 hrs, 2nd exp", "value": "100^a %"}, {"measurement": "% cumulative survival", "setting": "[1]; DHEA 2000 μg/mouse i.p. 1 hour before LPS + D-Gal, saline 10% rabbit serum, 48 hrs, 1st exp", "value": "100^a %"}, {"measurement": "% cumulative survival", "setting": "[1]; DHEA 2000 μg/mouse i.p. 1 hour before LPS + D-Gal, saline 10% rabbit serum, 48 hrs, 2nd exp", "value": "100^a %"}, {"measurement": "% cumulative survival", "setting": "[1]; DHEA 2000 μg/mouse i.p. 1 hour before LPS + D-Gal, saline 10% rabbit serum, 72 hrs, 1st exp", "value": "100^a %"}, {"measurement": "% cumulative survival", "setting": "[1]; DHEA 2000 μg/mouse i.p. 1 hour before LPS + D-Gal, saline 10% rabbit serum, 72 hrs, 2nd exp", "value": "100^a %"}, {"measurement": "% cumulative survival", "setting": "[1]; DHEA 2000 μg/mouse i.p. 1 hour before LPS + D-Gal, saline 10% rabbit serum, 96 hrs, 1st exp", "value": "100^a %"}, {"measurement": "% cumulative survival", "setting": "[1]; DHEA 2000 μg/mouse i.p. 1 hour before LPS + D-Gal, saline 10% rabbit serum, 96 hrs, 2nd exp", "value": "100^a %"}, {"measurement": "survival", "setting": "[1]; DHEA 1.000 and 1.500 μg/mouse alone", "value": "0–40%"}, {"measurement": "protective effects", "setting": "[1]; DHEA at doses higher than 1.000 μg/mouse, 1 hour before LPS+D-Galactosamine", "value": "statistically significant protective effects"}, {"measurement": "protective effects", "setting": "[1]; DHEA up to 1.000 μg/mouse, 1 hour before LPS+D-Galactosamine", "value": "No protective effects"}, {"measurement": "% cumulative survival", "setting": "[1]; Table 2, DHEA 1000 μg/mouse i.p. 1 hour before LPS + D-Gal, saline 10% rabbit serum, 24 hrs", "value": 0, "unit": "%"}, {"measurement": "% cumulative survival", "setting": "[1]; Table 2, DHEA 1000 μg/mouse i.p. 1 hour before LPS + D-Gal, saline 10% rabbit serum, 48 hrs", "value": 0, "unit": "%"}, {"measurement": "% cumulative survival", "setting": "[1]; Table 2, DHEA 1000 μg/mouse i.p. 1 hour before LPS + D-Gal, saline 10% rabbit serum, 72 hrs", "value": 0, "unit": "%"}, {"measurement": "% cumulative survival", "setting": "[1]; Table 2, DHEA 1000 μg/mouse i.p. 1 hour before LPS + D-Gal, saline 10% rabbit serum, 96 hrs", "value": 0, "unit": "%"}, {"measurement": "% cumulative survival", "setting": "[1]; Table 2, DHEA 1500 μg/mouse i.p. 1 hour before LPS + D-Gal, saline 10% rabbit serum, 24 hrs", "value": 40, "unit": "%"}, {"measurement": "% cumulative survival", "setting": "[1]; Table 2, DHEA 1500 μg/mouse i.p. 1 hour before LPS + D-Gal, saline 10% rabbit serum, 48 hrs", "value": 40, "unit": "%"}, {"measurement": "% cumulative survival", "setting": "[1]; Table 2, DHEA 1500 μg/mouse i.p. 1 hour before LPS + D-Gal, saline 10% rabbit serum, 72 hrs", "value": 20, "unit": "%"}, {"measurement": "% cumulative survival", "setting": "[1]; Table 2, DHEA 1500 μg/mouse i.p. 1 hour before LPS + D-Gal, saline 10% rabbit serum, 96 hrs", "value": 20, "unit": "%"}, {"measurement": "% cumulative survival", "setting": "[1]; Table 4, DHEA 250 μg single injection at time 0 i.p., NaCl 10% PLE, 24 hr", "value": 40, "unit": "%"}, {"measurement": "% cumulative survival", "setting": "[1]; Table 4, DHEA 250 μg single injection at time 0 i.p., NaCl 10% PLE, 48 hr", "value": 30, "unit": "%"}, {"measurement": "% cumulative survival", "setting": "[1]; Table 4, DHEA 250 μg single injection at time 0 i.p., NaCl 10% PLE, 72 hr", "value": 30, "unit": "%"}, {"measurement": "% cumulative survival", "setting": "[1]; Table 4, DHEA 250 μg single injection at time 0 i.p., NaCl 10% PLE, 96 hr", "value": 30, "unit": "%"}, {"measurement": "% cumulative survival", "setting": "[1]; Table 4, DHEA 250 μg single injection at time 0 i.p., NaCl 10% RS, 24 hr", "value": 30, "unit": "%"}, {"measurement": "% cumulative survival", "setting": "[1]; Table 4, DHEA 250 μg single injection at time 0 i.p., NaCl 10% RS, 48 hr", "value": 30, "unit": "%"}, {"measurement": "% cumulative survival", "setting": "[1]; Table 4, DHEA 250 μg single injection at time 0 i.p., NaCl 10% RS, 72 hr", "value": 30, "unit": "%"}, {"measurement": "% cumulative survival", "setting": "[1]; Table 4, DHEA 250 μg single injection at time 0 i.p., NaCl 10% RS, 96 hr", "value": 30, "unit": "%"}, {"measurement": "% cumulative survival", "setting": "[1]; Table 5 group D, DHEA 250 μg single injection at time 0 i.p., NaCl 10% PLE, 24 hrs, 1st exp.", "value": 40, "unit": "%"}, {"measurement": "% cumulative survival", "setting": "[1]; Table 5 group D, DHEA 250 μg single injection at time 0 i.p., NaCl 10% PLE, 48 hrs, 1st exp.", "value": 30, "unit": "%"}, {"measurement": "% cumulative survival", "setting": "[1]; Table 5 group D, DHEA 250 μg single injection at time 0 i.p., NaCl 10% PLE, 72 hrs, 1st exp.", "value": 30, "unit": "%"}, {"measurement": "% cumulative survival", "setting": "[1]; Table 5 group D, DHEA 250 μg single injection at time 0 i.p., NaCl 10% PLE, 96 hrs, 1st exp.", "value": 30, "unit": "%"}, {"measurement": "% cumulative survival", "setting": "[1]; Table 5 group E, DHEA 62.5 μg x4 at time 0, 3, 6 and 24 hours i.p., NaCl 10% PLE, 24 hrs, 1st exp.", "value": 40, "unit": "%"}, {"measurement": "% cumulative survival", "setting": "[1]; Table 5 group E, DHEA 62.5 μg x4 at time 0, 3, 6 and 24 hours i.p., NaCl 10% PLE, 24 hrs, 2nd exp.", "value": 40, "unit": "%"}, {"measurement": "% cumulative survival", "setting": "[1]; Table 5 group E, DHEA 62.5 μg x4 at time 0, 3, 6 and 24 hours i.p., NaCl 10% PLE, 48 hrs, 1st exp.", "value": 40, "unit": "%"}, {"measurement": "% cumulative survival", "setting": "[1]; Table 5 group E, DHEA 62.5 μg x4 at time 0, 3, 6 and 24 hours i.p., NaCl 10% PLE, 48 hrs, 2nd exp.", "value": 40, "unit": "%"}, {"measurement": "% cumulative survival", "setting": "[1]; Table 5 group E, DHEA 62.5 μg x4 at time 0, 3, 6 and 24 hours i.p., NaCl 10% PLE, 72 hrs, 1st exp.", "value": 40, "unit": "%"}, {"measurement": "% cumulative survival", "setting": "[1]; Table 5 group E, DHEA 62.5 μg x4 at time 0, 3, 6 and 24 hours i.p., NaCl 10% PLE, 72 hrs, 2nd exp.", "value": 40, "unit": "%"}, {"measurement": "% cumulative survival", "setting": "[1]; Table 5 group E, DHEA 62.5 μg x4 at time 0, 3, 6 and 24 hours i.p., NaCl 10% PLE, 96 hrs, 1st exp.", "value": 40, "unit": "%"}, {"measurement": "% cumulative survival", "setting": "[1]; Table 5 group E, DHEA 62.5 μg x4 at time 0, 3, 6 and 24 hours i.p., NaCl 10% PLE, 96 hrs, 2nd exp.", "value": 40, "unit": "%"}, {"measurement": "protection from death (survival)", "setting": "[1]; at least 1.500 μg/mouse DHEA, 1 hour before LPS+D-Galactosamine", "value": 70, "unit": "%"}, {"measurement": "systemic resistance against lethal viral infections", "setting": "[2]", "value": "regulates the systemic resistance"}, {"measurement": "TNF-α levels after LPS administration", "setting": "[3]", "value": "significantly blocked"}, {"measurement": "systemic resistance against lethal viral infections", "setting": "[4]", "value": "regulates the systemic resistance"}, {"measurement": "systemic resistance against lethal viral infections", "setting": "[5]", "value": "regulates the systemic resistance"}, {"measurement": "protection from septic shock", "setting": "[6]", "value": "protecting mice from septic shock"}, {"measurement": "systemic resistance against lethal viral infections", "setting": "[7]", "value": "regulates the systemic resistance"}]}]}
